# Tests used:
# mGluR2 = mGluR2 (Homo sapiens, UniProt Q14416); conditions: antagonist; read-out: IC50 value against mGluR2; cited from earlier work
# mGluR3 = mGluR3 (Homo sapiens, UniProt Q14832); conditions: antagonist; read-out: IC50 value against mGluR3; cited from earlier work
# [1] = system: Group I or Group III receptors; conditions: at sub-mM concentrations; cited from earlier work
# [2] = system: KA, AMPA, and NMDA iGlu receptors; conditions: cited from earlier work
# human mGlu2 = human mGlu2 (Homo sapiens, UniProt Q14416); conditions: agonist; low nanomolar range; read-out: EC50 values against human mGlu2 receptors in vitro; cited from earlier work
# human mGlu2, sequence (Q14416 19-872): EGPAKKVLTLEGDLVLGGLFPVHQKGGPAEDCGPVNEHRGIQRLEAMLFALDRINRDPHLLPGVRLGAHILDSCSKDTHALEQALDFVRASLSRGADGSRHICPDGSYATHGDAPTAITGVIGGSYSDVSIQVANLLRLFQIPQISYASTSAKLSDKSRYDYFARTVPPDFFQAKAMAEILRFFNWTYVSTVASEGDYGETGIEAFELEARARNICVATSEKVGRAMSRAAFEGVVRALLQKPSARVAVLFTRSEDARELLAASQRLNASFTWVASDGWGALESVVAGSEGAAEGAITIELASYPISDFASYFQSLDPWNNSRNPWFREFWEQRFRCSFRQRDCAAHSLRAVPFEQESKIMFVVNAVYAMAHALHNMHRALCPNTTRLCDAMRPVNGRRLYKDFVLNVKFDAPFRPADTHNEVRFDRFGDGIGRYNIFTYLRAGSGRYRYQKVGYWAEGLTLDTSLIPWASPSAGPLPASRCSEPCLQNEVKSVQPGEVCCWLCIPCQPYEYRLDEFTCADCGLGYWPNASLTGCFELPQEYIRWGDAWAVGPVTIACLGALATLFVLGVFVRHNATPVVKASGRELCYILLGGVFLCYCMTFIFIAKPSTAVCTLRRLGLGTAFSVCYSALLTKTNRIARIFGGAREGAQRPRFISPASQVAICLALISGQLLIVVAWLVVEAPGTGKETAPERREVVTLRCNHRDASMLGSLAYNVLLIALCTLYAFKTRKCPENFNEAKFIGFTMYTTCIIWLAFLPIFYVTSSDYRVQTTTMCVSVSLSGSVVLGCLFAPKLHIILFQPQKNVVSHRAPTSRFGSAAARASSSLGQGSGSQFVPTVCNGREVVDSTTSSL
# human mGlu3 = human mGlu3 (Homo sapiens, UniProt Q14832); conditions: agonist; low nanomolar range; read-out: EC50 values against human mGlu3 receptors in vitro; cited from earlier work
# human mGlu3, sequence (Q14832 23-879): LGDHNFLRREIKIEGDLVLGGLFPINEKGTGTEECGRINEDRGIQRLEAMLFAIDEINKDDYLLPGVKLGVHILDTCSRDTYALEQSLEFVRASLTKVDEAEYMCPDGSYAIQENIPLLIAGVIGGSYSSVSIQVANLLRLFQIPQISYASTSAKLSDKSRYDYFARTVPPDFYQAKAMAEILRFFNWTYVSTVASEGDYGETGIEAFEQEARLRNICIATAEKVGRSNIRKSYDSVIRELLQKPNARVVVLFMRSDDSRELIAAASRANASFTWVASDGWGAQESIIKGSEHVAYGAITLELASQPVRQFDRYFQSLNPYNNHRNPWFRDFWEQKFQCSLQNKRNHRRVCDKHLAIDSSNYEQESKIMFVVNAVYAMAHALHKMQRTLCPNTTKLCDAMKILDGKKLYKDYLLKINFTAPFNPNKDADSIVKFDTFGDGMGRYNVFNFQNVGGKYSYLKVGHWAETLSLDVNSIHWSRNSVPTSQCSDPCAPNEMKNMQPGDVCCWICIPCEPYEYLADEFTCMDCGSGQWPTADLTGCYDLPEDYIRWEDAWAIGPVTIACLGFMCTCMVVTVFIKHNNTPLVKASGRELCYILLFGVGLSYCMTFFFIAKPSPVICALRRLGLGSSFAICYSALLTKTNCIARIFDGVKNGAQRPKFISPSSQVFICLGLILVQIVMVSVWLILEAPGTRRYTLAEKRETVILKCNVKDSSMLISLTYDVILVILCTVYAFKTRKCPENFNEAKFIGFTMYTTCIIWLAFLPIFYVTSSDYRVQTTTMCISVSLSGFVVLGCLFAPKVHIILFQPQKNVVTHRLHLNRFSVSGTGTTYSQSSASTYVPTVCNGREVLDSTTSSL
# [3] = system: rat NeuroD1, GluR2, NFH and GAP43 promoters; assay: In vitro rodent gene reporter assay in rNSC; format: cell-based; conditions: 2 days incubation
# Excerpt: Briefly, cultured rodent neural stem cells (rNSC) were transfected by electroporation with a vectors containing promoters specific for the rat NeuroD1, GluR2, NFH and GAP43 genes linked to the fluorescent reporter protein DsRed. All gene reporter constructs were cloned in the same lentiviral vector backbone, and mixed with Nucleofactor solution for electroporation. A GFP vector control was used in parallel to visualize effectiveness of electroporation. Transfected rNSCs were then suspended in test media containing varying concentrations of the HDac inhibitors trichostatin A, valproic acid, MS-275 or apicidin, and a mixture of 0.5 μg renilla luciferase and 5 μg promoter-specific […] luciferase. The cells were incubated in 5% CO2 at 37° C. for 2 days, and then lysed, whereupon the cell extracts were read on a Tecan Genios Pro reader to detect the promoter-specific activation of the reporter constructs.
# [4] = system: human neural stem cells (hNSCs); assay: Neuronal differentiation of human neural stem cells (TUJ-1 staining); format: cell-based; conditions: for differentiation along a neuronal lineage (in words): hNSCs
# [5] = system: human neural stem cells (hNSCs); assay: Astrocyte differentiation of hNSCs (GFAP staining); format: cell-based; conditions: cultured hNSCs
# Excerpt: Results are shown in FIGS. 2 and 11, which show the lack of astrocyte differentiation of human neural stem cells in the presence of trichostatin A and valproic acid, respectively.
# [6] = system: neural stem and/or progenitor cells in the dentate gyrus; assay: In vivo chronic dosing study, BrdU-positive cells in dentate gyrus; set-up: species or system rat; conditions: male Fischer F344 rats, 300 mg/kg for 28 days, vs vehicle
# Method: Male Fischer F344 rats were treated with 300 mg/kg of valproic acid for 28 days, and then anesthetized and killed by transcardial perfusion of 4% paraformaldehyde at day 28. Brains were rapidly removed and stored in 4% paraformaldehyde for 24 hours and then equilibrated in phosphate buffered 30% sucrose. Free floating 40 micron sections were collected on a freezing microtome and stored in cyroprotectant. Antibodies against BrdU and cells types of interest (e.g., neurons, astrocytes, oligodendrocytes, endothelial cells) were used for detection of cell survival and differentiation. […] The proportion of BrdU cells displaying a lineage-specific phenotype was determined by scoring the co-localization of cell phenotype markers with BrdU using confocal microscopy. […] When possible, 100 or more BrdU-positive cells were scored for each maker per animal. Each cell was manually examined in first full “z”-dimension and only those cells for which the nucleus was unambiguously associated with the lineage-specific marker were scored as positive. The total number of BrdU-labeled cells per hippocampal granule cell layer and subgranular zone were determined using diaminobenzadine stained tissues. Overestimation was corrected using the Abercrombie method for nuclei with empirically determined average diameter of 13 um within a 40 um section.
# [7] = system: human neural stem cells (hNSCs); assay: Anti-proliferative effects on human neural stem cell clusters (area over fourteen days); format: cell-based; conditions: hNSC clusters after 14 days; basal media control 164%
# Excerpt: 7, 2006 (incorporated by reference). […] Cell clusters were imaged and their area measured over fourteen days. […] As the results described in Example 3 indicate, reduction in growth is not due to increased toxicity or reduced survival, and therefore the observed reduced growth of the cell clusters results from decreased proliferation of human neural stem cells in the presence of the HDac inhibitor.
# mGluR3, sequence (Q14832 23-879): as above
# mGluR2, sequence (Q14416 19-872): as the sequence (Q14416 19-872) above
smiles,measurement,setting,value
"NC1(C(=O)O)CCc2cc(P(=O)(O)O)ccc21 (racemic) [APICA, (RS)-1-amino-5-phosphonoindan-1-carboxylic acid]",IC50,mGluR2,~30 µM
same,IC50,mGluR3,~30 µM
same,activity against Group I or Group III receptors,[1],no appreciable activity
"N[C@](CC1c2ccccc2Oc2ccccc21)(C(=O)O)[C@H]1C[C@@H]1C(=O)O [LY341495, (2S)-2-amino-2-(1S,2S-2-carboxycycloprop-1-yl)-3-(xanth-9-yl) propanoic acid]","activity against KA, AMPA, and NMDA iGlu receptors",[2],substantially inactive
"N[C@@]1(C(=O)O)CO[C@H]2[C@H](C(=O)O)[C@H]21 [LY379268, (−)-2-Oxa-4-aminobicyclohexane-4,6-dicarboxylic acid]",EC50,human mGlu2,< 0.01 µM
same,EC50,human mGlu3,< 0.01 µM
Nc1ccccc1NC(=O)c1ccc(CNC(=O)OCc2cccnc2)cc1 [MS-275],expression of promoters for the neurofilament high (NFH) and growth associated protein 43 (GAP43) genes,[3],promote expression
same,"neurogenic activity, activation of the rat NeuroD1, GluR2, NFH and GAP43 promoters",[3],neurogenic
"CC(/C=C/C(=O)NO)=C\[C@@H](C)C(=O)c1ccc(N(C)C)cc1 [Trichostatin A, trichostatin A]",EC50,"[4]; cultured hNSCs, two experiments (Run A, Run B), normalized to neuronal positive control",~0.00345 µM
same,differentiation along a neuronal lineage (in words),[4],permits differentiation of cells along a neuronal lineage
same,EC50,[5]; highest concentration tested approximately 31.6 nM,> 0.0316 µM
"CCCC(CCC)C(=O)O [Valproic acid, 2-propylpentanoic acid]",differentiation along a neuronal lineage (in words),[4],continues to promote neuronal differentiation
same,EC50,"[5]; Homo sapiens, Neural stem cell, highest tested concentration approximately 10.0 μM",> 10 µM
same,expression of promoters for the neurofilament high (NFH) and growth associated protein 43 (GAP43) genes,[3],promote expression
same,"neurogenic activity, activation of the rat NeuroD1, GluR2, NFH and GAP43 promoters",[3],neurogenic
same,proliferation in the dentate gyrus (proportion of BrdU-positive cells),[6],significantly decreased proliferation
same,"area occupied by cells, percent of the starting area",[7],86%
